{"source": "paper PMC5806266", "about": "“Molecular, biochemical and kinetic analysis of a novel, thermostable lipase (LipSm) from Stenotrophomonas maltophilia Psi-1, the first member of a new bacterial lipase family (XVIII)” (Journal of Biological Research, 2018)", "system": "T1, LipSm", "T1 construct": "mature form (371 residues, signal peptide cleaved in E. coli BL21(DE3) after LAA), C-terminal 8 extra residues incl; ORF 400 residues", "test": "initial velocities, 4-nitrophenol release at […] nm", "assay_type": "biochemical, Stenotrophomonas maltophilia", "conditions": "100 mM Tris-HCl pH 8.0, 1% w/v Triton X-100, 5% v/v DMSO, 40 °C", "data": [{"smiles": "CCCC(=O)Oc1ccc([N+](=O)[O-])cc1", "note": "[Bu-4-NPh, 4-nitrophenyl butyrate]", "values": [{"measurement": "Km", "setting": "850 nM enzyme, limited substrate solubility", "result": 1930, "unit": "µM"}]}, {"smiles": "CCCCCCCCCCCC(=O)Oc1ccc([N+](=O)[O-])cc1", "note": "[La-4-NPh, 4-nitrophenyl laurate]", "values": [{"measurement": "Km", "setting": "2200 nM enzyme, limited substrate solubility", "result": 349, "unit": "µM"}]}, {"smiles": "CC(=O)Oc1ccc([N+](=O)[O-])cc1", "note": "[Ac-4-NPh, 4-nitrophenyl acetate]", "values": [{"measurement": "Km", "setting": "850 nM enzyme", "result": 473, "unit": "µM"}]}]}
